Results: patent publication US20110015080A1, “Solution-based methods for RNA expression profiling” (MASSACHUSETTS INSTITUTE OF TECHNOLOGY, priority 2005, published 2011)
Values joined by “and” are separate entries in the source; they are usually repeats but may differ in a detail not shown here. Equal values may be shown once.

Test system: HL60 (human promyelocytic leukemia) cells
Assay: LMA-FlexMAP bead-based gene expression signature analysis of total RNA from HL60 cells treated with tretinoin or DMSO (ninety transcripts); on NM 000884 LUA#81 FlexMAP signal: test concentration or dose not given here; on NM 001469 LUA#79 FlexMAP signal: test concentration or dose not given here

CC1=C(/C=C/C(C)=C/C=C/C(C)=C/C(=O)O)C(C)(C)CCC1 [tretinoin, all-trans-retinoic acid]
ACTB LUA#91 FlexMAP signal (Experiment 1, tretinoin-treated HL60, transcript ACTB, replicate columns): 2313 and 2609 and 1929 and 2483 and 818 and 2425.5 and 2563 and 1173 and 2347 and 2296.5
GAPDH_3 LUA#95 FlexMAP signal (Experiment 1, tretinoin-treated HL60, transcript GAPDH_3, replicate columns): 2580 and 2982 and 2428 and 2979 and 1102.5 and 2911 and 2912 and 1645 and 2823 and 2559
GAPDH_5 LUA#93 FlexMAP signal (Experiment 1, tretinoin-treated HL60, transcript GAPDH_5, replicate columns): 1299 and 1629 and 998.5 and 1419 and 378.5 and 1433 and 1505.5 and 632 and 1469 and 1347
GAPDH_M LUA#94 FlexMAP signal (Experiment 1, tretinoin-treated HL60, transcript GAPDH_M, replicate columns): 1360.5 and 1575 and 1134 and 1511.5 and 460 and 1520 and 1502 and 698.5 and 1462 and 1334
NM_000147 LUA#29 FlexMAP signal (Experiment 1, tretinoin-treated HL60, transcript NM_000147, replicate columns): 764 and 894 and 573 and 861 and 195.5 and 822.5 and 850 and 302 and 783 and 763
NM_000211 LUA#39 FlexMAP signal (Experiment 1, tretinoin-treated HL60, transcript NM_000211, replicate columns): 1294.5 and 1488 and 1125 and 1420 and 454.5 and 1349 and 1366.5 and 682 and 1361 and 1315
NM_000250 LUA#87 FlexMAP signal (Experiment 1, tretinoin-treated HL60, transcript NM_000250, replicate columns): 164 and 198 and 194 and 74 and 177 and 187 and 95.5 and 173 and 166
NM_000414 LUA#22 FlexMAP signal (Experiment 1, tretinoin-treated HL60, transcript NM_000414, replicate columns): 372.5 and 470.5 and 270 and 442 and 100 and 408.5 and 415 and 145 and 402.5 and 373
NM_000433 LUA#28 FlexMAP signal (Experiment 1, tretinoin-treated HL60, transcript NM_000433, replicate columns): 536.5 and 647 and 442.5 and 640 and 144 and 605 and 622 and 228.5 and 564 and 532
NM_000584 LUA#30 FlexMAP signal (Experiment 1, tretinoin-treated HL60, transcript NM_000584, replicate columns): 1765 and 2115 and 1464 and 1938.5 and 476 and 1981.5 and 1945 and 799.5 and 1938 and 1717
NM_000884 LUA#81 FlexMAP signal (Experiment 1, tretinoin-treated HL60, transcript NM_000884, replicate columns): 799 (2×) and 946 and 676 and 871.5 and 250 and 871 and 865 and 389 and 830.5
NM_001034 LUA#67 FlexMAP signal (Experiment 1, tretinoin-treated HL60, transcript NM_001034, replicate columns): 191 and 243 and 157 and 225 and 73 and 209 and 212.5 and 92 and 219 and 185
NM_001101 LUA#34 FlexMAP signal (Experiment 1, tretinoin-treated HL60, transcript NM_001101, replicate columns): 2722 and 3119.5 and 2773 and 2969.5 and 1490 and 2968.5 and 2890 and 1977 and 2893.5 and 2694
NM_001469 LUA#79 FlexMAP signal (Experiment 1, tretinoin-treated HL60, transcript NM_001469, replicate columns): 1076 and 1221 and 809 and 1179 (2×) and 284 and 1191 and 463 and 1140.5 and 1077
NM_001498 LUA#18 FlexMAP signal (Experiment 1, tretinoin-treated HL60, transcript NM_001498, replicate columns): 361 and 424 and 279 and 402 and 96 and 374 and 412 and 140 and 360 and 335.5
NM_001684 LUA#23 FlexMAP signal (Experiment 1, tretinoin-treated HL60, transcript NM_001684, replicate columns): 69 and 68 and 54 and 66.5 and 41 and 65 (2×) and 43 and 61 and 63
NM_001948 LUA#84 FlexMAP signal (Experiment 1, tretinoin-treated HL60, transcript NM_001948, replicate columns): 58 and 75 and 61 and 73 and 47 and 63 and 71 and 51 and 76 and 66
NM_002166 LUA#25 FlexMAP signal (Experiment 1, tretinoin-treated HL60, transcript NM_002166, replicate columns): 154 and 180 and 124.5 and 159.5 and 61 and 168 and 159 and 79.5 and 156.5 and 152
NM_002467 LUA#90 FlexMAP signal (Experiment 1, tretinoin-treated HL60, transcript NM_002467, replicate columns): 1030 and 801 and 702 and 736 and 256 and 792.5 and 842.5 and 399 and 957 and 976
NM_002468 LUA#40 FlexMAP signal (Experiment 1, tretinoin-treated HL60, transcript NM_002468, replicate columns): 418 and 492 and 325 and 448.5 and 121 and 496.5 and 473 and 174.5 and 426.5 and 399.5
NM_002539 LUA#74 FlexMAP signal (Experiment 1, tretinoin-treated HL60, transcript NM_002539, replicate columns): 276 and 362 and 231 and 326 and 85 and 313 and 314.5 and 131 and 300 and 281.5
NM_002624 LUA#36 FlexMAP signal (Experiment 1, tretinoin-treated HL60, transcript NM_002624, replicate columns): 1288 and 1492.5 and 1267 and 1418 and 576 and 1447 and 1402 and 820 and 1224.5
NM_002664 LUA#38 FlexMAP signal (Experiment 1, tretinoin-treated HL60, transcript NM_002664, replicate columns): 2325 and 2761 and 2157 and 2552 and 892 and 2527 and 2504 and 1337 and 2394 and 2330
NM_002970 LUA#42 FlexMAP signal (Experiment 1, tretinoin-treated HL60, transcript NM_002970, replicate columns): 1455 and 1683.5 and 1181 and 1595 and 400 and 1478 and 1584 and 651 and 1503 and 1459
NM_002982 LUA#45 FlexMAP signal (Experiment 1, tretinoin-treated HL60, transcript NM_002982, replicate columns): 3488 and 3786 and 3231 and 3797 and 1738 and 3852 and 3752 and 2466 and 3667 and 3451
NM_003132 LUA#68 FlexMAP signal (Experiment 1, tretinoin-treated HL60, transcript NM_003132, replicate columns): 488 (2×) and 596 and 410 and 540 and 148 and 523 and 517 and 212 and 467.5
NM_003172 LUA#19 FlexMAP signal (Experiment 1, tretinoin-treated HL60, transcript NM_003172, replicate columns): 243 and 276 and 208 and 286 and 86 and 264 and 257 and 121 and 260 and 235
NM_003332 LUA#43 FlexMAP signal (Experiment 1, tretinoin-treated HL60, transcript NM_003332, replicate columns): 2387.5 and 2641 and 2219 and 2571.5 and 1100 and 2688.5 and 2573.5 and 1470 and 2528 and 2325
NM_003581 LUA#62 FlexMAP signal (Experiment 1, tretinoin-treated HL60, transcript NM_003581, replicate columns): 53 and 57 and 147 and 80 and 50 (2×) and 65 and 52 and 43 and 42
NM_003644 LUA#17 FlexMAP signal (Experiment 1, tretinoin-treated HL60, transcript NM_003644, replicate columns): 282 and 272 and 195.5 and 252 and 105 and 266.5 and 259 and 142 and 271.5 and 260
NM_003752 LUA#82 FlexMAP signal (Experiment 1, tretinoin-treated HL60, transcript NM_003752, replicate columns): 130.5 and 145.5 and 114 and 144.5 and 71 and 128.5 and 142 and 94 and 137.5 and 124.5
NM_003879 LUA#24 FlexMAP signal (Experiment 1, tretinoin-treated HL60, transcript NM_003879, replicate columns): 72.5 and 77.5 and 57 and 80 (2×) and 41 and 71 and 76 and 53 and 67
NM_004079 LUA#21 FlexMAP signal (Experiment 1, tretinoin-treated HL60, transcript NM_004079, replicate columns): 113 and 129 and 93 and 124.5 and 55 and 127 and 122 and 70 and 125.5 and 99.5
NM_004095 LUA#59 FlexMAP signal (Experiment 1, tretinoin-treated HL60, transcript NM_004095, replicate columns): 203 and 247 and 148 and 227 and 78 and 212 (2×) and 101 and 214.5 and 194.5
NM_004106 LUA#44 FlexMAP signal (Experiment 1, tretinoin-treated HL60, transcript NM_004106, replicate columns): 1187 and 1452 and 994 and 1303 and 373 and 1308 and 1315 and 576.5 and 1274.5 and 1218
NM_004134 LUA#76 FlexMAP signal (Experiment 1, tretinoin-treated HL60, transcript NM_004134, replicate columns): 278 and 318 and 207 and 277 and 83.5 and 292 and 306 and 111 and 280 and 266.5
NM_004152 LUA#31 FlexMAP signal (Experiment 1, tretinoin-treated HL60, transcript NM_004152, replicate columns): 1944 and 2194 and 1662 and 2073 and 775 and 2127.5 and 2117 and 1110 and 2045 and 1823
NM_004526 LUA#88 FlexMAP signal (Experiment 1, tretinoin-treated HL60, transcript NM_004526, replicate columns): 192 and 223 and 150 and 213 and 77 and 208 and 192.5 and 101 and 206.5 and 182.5
NM_004602 LUA#32 FlexMAP signal (Experiment 1, tretinoin-treated HL60, transcript NM_004602, replicate columns): 215.5 and 258 and 182 and 239 and 88 and 232.5 and 227.5 and 113.5 and 224 and 212
NM_004723 LUA#20 FlexMAP signal (Experiment 1, tretinoin-treated HL60, transcript NM_004723, replicate columns): 380 and 446 and 318 and 394 and 127 and 418.5 and 388.5 and 184 and 400 and 363.5
NM_004741 LUA#89 FlexMAP signal (Experiment 1, tretinoin-treated HL60, transcript NM_004741, replicate columns): 205 and 208 and 168 and 215 and 100 and 204 and 198 and 116 and 214 and 204.5
NM_004759 LUA#37 FlexMAP signal (Experiment 1, tretinoin-treated HL60, transcript NM_004759, replicate columns): 116 and 149.5 and 148 and 139.5 and 53 and 128 and 141 and 67 and 134 and 103
NM_005008 LUA#77 FlexMAP signal (Experiment 1, tretinoin-treated HL60, transcript NM_005008, replicate columns): 343 and 416 and 307 and 392 and 123 and 401 and 382.5 and 167 and 372 and 338.5
NM_005375 LUA#86 FlexMAP signal (Experiment 1, tretinoin-treated HL60, transcript NM_005375, replicate columns): 780.5 and 638 and 523 and 594.5 and 238 and 631.5 and 617 and 351 and 734 and 717
NM_005566 LUA#85 FlexMAP signal (Experiment 1, tretinoin-treated HL60, transcript NM_005566, replicate columns): 540 and 632.5 and 583.5 and 642 and 150 and 607 and 596 and 219 and 577 and 523.5
NM_005914 LUA#60 FlexMAP signal (Experiment 1, tretinoin-treated HL60, transcript NM_005914, replicate columns): 881.5 and 948 and 566.5 and 843 and 209 and 866 and 848.5 and 351 and 885 and 795
NM_005915 LUA#72 FlexMAP signal (Experiment 1, tretinoin-treated HL60, transcript NM_005915, replicate columns): 44 (2×) and 59 and 39 and 54 and 34.5 and 56 and 41 and 51 and 47
